For experiment [1], the target named is T1, MK2 (Homo sapiens, UniProt P49137). The experiment in a line: MK2 degradation in human SW1353 cells (MSD, 24 h). The note with it: for Dmax: read-out: MK2 MSD SW 1353 24 h Dmax %; for DC50: read-out: MK2 MSD SW1353 degradation 24 h GMean External Abs DC50. Also noted: endogenous in cells; host or cells: SW-1353 (ATCC HTB-94). Format: cell-based. The essentials: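 DC50 derived by 4-parameter logistic fit, with DMSO-treated signal as top and lysis-buffer signal as bottom. Remaining MK2 was measured by MSD electrochemiluminescent sandwich assay in RIPA lysates of human SW1353 cells exposed for 24 h at 37 °C to serially diluted compound in 0.1% DMSO.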
T1 sequence (P49137 whole entry): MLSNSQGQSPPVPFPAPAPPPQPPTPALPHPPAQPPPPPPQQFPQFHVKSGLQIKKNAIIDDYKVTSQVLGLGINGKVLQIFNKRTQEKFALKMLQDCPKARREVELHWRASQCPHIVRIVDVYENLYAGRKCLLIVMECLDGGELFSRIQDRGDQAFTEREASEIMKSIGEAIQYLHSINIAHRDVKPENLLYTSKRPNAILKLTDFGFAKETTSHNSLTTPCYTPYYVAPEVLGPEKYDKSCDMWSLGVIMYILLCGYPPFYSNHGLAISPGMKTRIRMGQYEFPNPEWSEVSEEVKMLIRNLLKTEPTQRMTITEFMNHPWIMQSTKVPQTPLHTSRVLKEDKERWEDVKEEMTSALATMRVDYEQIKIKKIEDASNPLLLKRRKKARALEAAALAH

Experiment [2] has as its target T1, MK2. The experiment in a line: MK2 degradation in human THP-1 monocytic cells (MSD, 24 h). Format: cell-based. Further details: endogenous in cells. The note with it: for Dmax: THP-1, THP-1 cells; for DC50: THP-1 cells, read-out: MK2 MSD THP-1 degradation 24 h GMean External Abs DC50. The essentials: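 Readout: residual MK2 protein in THP-1 lysates, measured by MSD electrochemiluminescence sandwich assay after 24 h compound exposure (≤10-point serial dilutions, 0.1% DMSO, 37 °C). Curves normalised between lysis-buffer and DMSO-cell signals; DC50 by 4-parameter logistic fit.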

The term Dmax denotes the largest share of the target that was removed. The DC50 is the concentration giving 50% degradation. As for `C[C@@H]1CN(C)c2c(sc3ccc4nc(-c5ccc(N6CCN(CCc7cccc8c7n(C)c(=O)n8C7CCC(=O)NC7=O)CC6)cc5)ccc4c23)C(=O)N1` (stereo partly shown) [Compound I-413], the Dmax at MK2 [1] and on MK2 [2] was above 75% throughout. Also, the 50% degradation concentration (DC50) is 1 to 10 nM on MK2 [1] and below 1 nM at MK2 [2].

Take `C[C@@H]1CN(C)c2c(sc3ccc4nc(-c5ccc(N6CCN(CCc7cccc8c7n(C)c(=O)n8C7CCC(=O)NC7=O)CC6)nc5)ccc4c23)C(=O)N1` (stereo partly shown) [Compound I-414]: at MK2 [1], the Dmax was above 75% and the DC50 was below 1 nM. On MK2 [2], the Dmax was above 75% and the DC50 was in the range of 1 to 10 nM.

With `Cn1c(=O)n(C2CCC(=O)NC2=O)c2ccc(N3CC(CN4CCN(c5ccc(-c6cc(-c7cc8c([nH]7)C7(CCCC7)CNC8=O)ccn6)cc5)CC4)C3)cc21` (stereo not shown) [Compound I-415], at MK2 [1], the greatest degradation seen (Dmax) was above 75% and the half-maximal degradation concentration (DC50) was below 1 nM. At MK2 [2], the greatest degradation seen (Dmax) is above 75% and the half-maximal degradation concentration (DC50) was below 1 nM.

As for `C[C@@H]1Cc2oc(-c3ccnc(-c4ccc(N5CCN(CC6CCN(c7cccc8c7n(C)c(=O)n8C7CCC(=O)NC7=O)CC6)CC5)nc4)c3)cc2C(=O)N1` (stereo partly shown) [Compound I-416], the Dmax is 50 to 75% at MK2 [1] and below 50% at MK2 [2]. Moreover, the results for the 50% degradation concentration (DC50) at MK2 [1] and at MK2 [2] were 10 to 100 nM and above 100 nM, respectively.

Consider `C[C@@H]1Cc2oc(-c3ccnc(-c4ccc(N5CCN(CC6CN(c7ccc8c(c7)n(C)c(=O)n8C7CCC(=O)NC7=O)C6)CC5)nc4)c3)cc2C(=O)N1` (stereo partly shown) [Compound I-417], for which, on MK2 [1], the greatest degradation seen (Dmax) was above 75% and the DC50 is below 1 nM. On MK2 [2], the Dmax is above 75% and the DC50 is 1 to 10 nM.

In the case of `Cn1c(=O)n(C2CCC(=O)NC2=O)c2cccc(N3CC(N4CCN(c5ccc(-c6cc(-c7cc8c([nH]7)C7(CCCC7)CNC8=O)ccn6)cc5)CC4)C3)c21` (stereo not shown) [Compound I-418], at MK2 [1], the Dmax was above 75% and the half-maximal degradation concentration (DC50) was below 1 nM. Further, on MK2 [2], the maximal degradation (Dmax) was above 75% and the half-maximal degradation concentration (DC50) lay within 1 to 10 nM.

`Cn1c(=O)n(C2CCC(=O)NC2=O)c2cccc(N3CC(N4CCN(c5ccc(-c6cc(-c7cc8c([nH]7)C7(CC7)CNC8=O)ccn6)cc5)CC4)C3)c21` (stereo not shown) [Compound I-419]: the Dmax at MK2 [1] and on MK2 [2] was above 75% in each case. Moreover, the 50% degradation concentration (DC50) on MK2 [1] and on MK2 [2] was below 1 nM each time.

Regarding `C[C@@H]1CNc2c(sc3ccc4nc(-c5ccc(N6CCN(CC7CCN(c8cccc(C9CCC(=O)NC9=O)c8)CC7)CC6)nc5)ccc4c23)C(=O)N1` (stereo partly shown) [Compound I-420], on MK2 [1], the Dmax is above 75% and the DC50 was 1 to 10 nM. For the same compound, at MK2 [2], the Dmax was above 75% and the DC50 was in the range of 1 to 10 nM.

As for `C[C@@H]1CNc2c(sc3ccc4nc(-c5ccc(N6CCN(CC7CCN(c8ccc(C9CCC(=O)NC9=O)cc8)CC7)CC6)nc5)ccc4c23)C(=O)N1` (stereo partly shown) [Compound I-421], on MK2 [1], the Dmax was above 75% and the DC50 was in the range of 1 to 10 nM. Moreover, on MK2 [2], the greatest degradation seen (Dmax) is above 75% and the DC50 is 1 to 10 nM.

In the case of `Cn1c(=O)n(C2CCC(=O)NC2=O)c2ccc(N3CC(CN4CCN(c5ccc(-c6cc(-c7cc8c([nH]7)C7(CCCC7)CNC8=O)ccn6)c(F)c5)CC4)C3)cc21` (stereo not shown) [Compound I-422], the maximal degradation (Dmax) at MK2 [1] and on MK2 [2] was above 75% in each case. Also, the half-maximal degradation concentration (DC50) on MK2 [1] and at MK2 [2] was below 1 nM throughout.

Regarding `Cn1c(=O)n(C2CCC(=O)NC2=O)c2ccc(N3CC(CN4CCN(c5ccc(-c6cc(-c7cc8c([nH]7)CCNC8=O)ccn6)c(F)c5)CC4)C3)cc21` (stereo not shown) [Compound I-423], the Dmax on MK2 [1] and at MK2 [2] was above 75% in each case. The 50% degradation concentration (DC50) at MK2 [1] and on MK2 [2] was below 1 nM throughout.

For `Cn1c(=O)n(C2CCC(=O)NC2=O)c2ccc(N3CCC(CN4CCN(c5ccc(-c6cc(-c7cc8c([nH]7)C7(CCCC7)CNC8=O)ccn6)c(F)c5)CC4)CC3)cc21` (stereo not shown) [Compound I-424], at MK2 [1], the greatest degradation seen (Dmax) was above 75% and the 50% degradation concentration (DC50) was below 1 nM. At MK2 [2], the Dmax was above 75% and the half-maximal degradation concentration (DC50) fell in the range of 1 to 10 nM.

`Cn1c(=O)n(C2CCC(=O)NC2=O)c2ccc(N3CC(CN4CCN(c5ccc(-c6cc(-c7cc8c([nH]7)C7(CC7)CNC8=O)ccn6)c(F)c5)CC4)C3)cc21` (stereo not shown) [Compound I-425]: at MK2 [1], the greatest degradation seen (Dmax) was above 75% and the half-maximal degradation concentration (DC50) is below 1 nM. Further, on MK2 [2], the maximal degradation (Dmax) is above 75% and the DC50 is below 1 nM.

`Cn1c(=O)n(C2CCC(=O)NC2=O)c2ccc(N3CC(CN4CCN(c5ccc(-c6nccc(-c7cc8c([nH]7)C7(CC7)CNC8=O)n6)cc5)CC4)C3)cc21` (stereo not shown) [Compound I-426]: the Dmax on MK2 [1] and at MK2 [2] was above 75% each time. Further, the DC50 at MK2 [1] and at MK2 [2] was below 1 nM each time.

`Cn1c(=O)n(C2CCC(=O)NC2=O)c2ccc(N3CCC(CN4CCN(c5ccc(-c6nccc(-c7cc8c([nH]7)CCNC8=O)n6)cc5)CC4)CC3)cc21` (stereo not shown) [Compound I-427]: at MK2 [1], the greatest degradation seen (Dmax) is above 75% and the DC50 is below 1 nM. Also, at MK2 [2], the Dmax was above 75% and the 50% degradation concentration (DC50) is below 1 nM.

In the case of `Cn1c(=O)n(C2CCC(=O)NC2=O)c2ccc(N3CCC(CN4CCN(c5ccc(-c6nccc(-c7cc8c([nH]7)C7(CC7)CNC8=O)n6)cc5)CC4)CC3)cc21` (stereo not shown) [Compound I-428], on MK2 [1], the maximal degradation (Dmax) is above 75% and the 50% degradation concentration (DC50) is below 1 nM. On MK2 [2], the maximal degradation (Dmax) is above 75% and the 50% degradation concentration (DC50) lay in the range of 1 to 10 nM.

As to `Cn1c(=O)n(C2CCC(=O)NC2=O)c2ccc(N3CCC(CN4CCN(c5ccc6oc(-c7cc(Nc8ccnc(N)n8)cc8cn[nH]c78)cc6c5)CC4)CC3)cc21` (stereo not shown) [Compound I-429], at MK2 [1], the Dmax is below 50% and the 50% degradation concentration (DC50) is above 100 nM. On MK2 [2], the Dmax was below 50% and the half-maximal degradation concentration (DC50) was above 100 nM.

In the case of `COc1ccc2c(c1CCN1CCN(c3ccc(-c4cc(-c5cc6c([nH]5)C5(CC5)CNC6=O)ccn4)cc3)CC1)n(C)c(=O)n2C1CCC(=O)NC1=O` (stereo not shown) [Compound I-430], the greatest degradation seen (Dmax) on MK2 [1] and on MK2 [2] was above 75% each time. Further, the 50% degradation concentration (DC50) at MK2 [1] and on MK2 [2] was below 1 nM throughout.

For `Cn1c(=O)n(C2CCC(=O)NC2=O)c2cccc(CCN3CCN(c4ccc(-c5nccc(-c6cc7c([nH]6)C6(CC6)CNC7=O)c5F)cc4)CC3)c21` (stereo not shown) [Compound I-431], the maximal degradation (Dmax) is 50 to 75% on MK2 [1] and below 50% on MK2 [2]. In addition, the DC50 is 10 to 100 nM at MK2 [1] and above 100 nM at MK2 [2].

In the case of `COc1cc(-c2ccc3c(ccc4sc5c(c43)NC[C@@H](C)NC5=O)n2)c(C)cc1N1CCN(CC2CCN(c3ccc4c(c3)n(C)c(=O)n4C3CCC(=O)NC3=O)CC2)CC1` (stereo partly shown) [Compound I-432], on MK2 [1], the Dmax was above 75% and the DC50 is below 1 nM. On MK2 [2], the Dmax lay in the range of 50 to 75% and the 50% degradation concentration (DC50) lay in the range of 10 to 100 nM.

Turning to `C[C@@H]1CNc2c(sc3ccc4nc(N5CC6CCC(C5)N6CC5CCN(c6ccc7c(c6)n(C)c(=O)n7C6CCC(=O)NC6=O)CC5)ccc4c23)C(=O)N1` (stereo partly shown) [Compound I-433], the Dmax at MK2 [1] and on MK2 [2] was below 50% each time. In addition, the DC50 at MK2 [1] and on MK2 [2] was above 100 nM throughout.

As to `C[C@@H]1CNc2c(sc3ccc4nc(N5C6CCC5CN(CC5CCN(c7ccc8c(c7)n(C)c(=O)n8C7CCC(=O)NC7=O)CC5)C6)ccc4c23)C(=O)N1` (stereo partly shown) [Compound I-434], on MK2 [1], the Dmax was below 50% and the 50% degradation concentration (DC50) is above 100 nM. Moreover, at MK2 [2], the Dmax was below 50% and the DC50 is above 100 nM.
